Assay results: patent US20240317777A1, “NOVEL MACROCYCLIC AMINOPYRAZOLE COMPOUNDS AS CDK2 INHIBITORS” (Accutar Biotechnology Inc., priority 2023, published 2024)
Where two headings read alike, the source gives them in different places.

How the values were obtained:
[1] = biological target: CDK1-CYCLIN B (Homo sapiens, UniProt P06493); assay: CDK protein kinase inhibition by ADP-Glo assay, CDK1-CYCLIN B; assay type: biochemical; details: for IC50: read-out: CDK1-CYCLINB, IC50; for CDK2 Fold selectivity, CDK1 / CDK2 fold selectivity over CDK1: CDK2 versus CDK1; for CDK2 fold selectivity over CDK1: Table 8; for CDK2 Fold selectivity against CDK1: Table 38, fold selectivity for CDK2 over CDK1, recombinant CDK kinases
Procedure: (§1) CDK Protein Kinase Inhibition by ADP-Glo Assay
(§2) This ADP-Glo assay measures ADP formed from a kinase reaction and indirectly quantifies the phosphorylation of peptide substrates by the CDK/cyclin protein complexes. The typical assays were carried out in Nanosyn by combining kinase/cyclin complexes, substrates, compounds, and cofactors (ATP and Mg2+) in a well of a 384-well microtiter plate (Corning 3824) and incubating at 22° C. (Table 1). At the end of the incubation, the reaction is quenched, and conversion is detected by luminescence using the Promega ADP-Glo™ Kinase Assay kit (catalog #V9102).
(§3) Final assay buffer mixture contains: • 100 mM HEPES, pH 7.5 • 0.1% BSA • 0.01% Triton X-100 • 1 mM DTT • 5 mM MgCl2 • 10 μM Sodium Orthovanadate • 100 μM Beta-Glycerophosphate • 1000 μM Ultra Pure ATP (provided in the Promega ADP-Glo™ Kinase Assay kit) • 1% DMSO (from compound)
(§4) Upon completion, 5 μL of the ADP Glo reagent was added to each well and the plate was further incubated at room temperature for 45 minutes. 10 uL of the Kinase Detection Reagent was subsequently added to each well. After 10 minutes of incubation, the plate was read and analyzed on the BioTek Synergy microplate reader using BioTek Gen5 software.

[2] = biological target: CDK2-CYCLIN E1 (Homo sapiens, UniProt P24941); assay: CDK protein kinase inhibition by ADP-Glo assay, CDK2-CYCLIN E1; assay type: biochemical; details: read-out: CDK2-CYCLINE, IC50
Procedure: as §1, §2, §3, §4

[3] = biological target: CDK4-CYCLIN D1 (Homo sapiens, UniProt P11802); assay: CDK protein kinase inhibition by ADP-Glo assay, CDK4-CYCLIN D1; assay type: biochemical; details: for IC50: read-out: CDK4-CYCLIND1, IC50; for CDK2 Fold selectivity, CDK4 / CDK2 Fold Sensitivity, CDK4: CDK2 versus CDK4; for CDK2 Fold Sensitivity, CDK4: Table 8; for CDK2 Fold selectivity against CDK4: Table 38, fold selectivity for CDK2 over CDK4, recombinant CDK kinases
Procedure: as §1, §2, §3, §4

[4] = biological target: CDK6-CYCLIN D3 (Homo sapiens, UniProt Q00534); assay: CDK protein kinase inhibition by ADP-Glo assay, CDK6-CYCLIN D3; assay type: biochemical; details: for IC50: read-out: CDK6-CYCLIND3, IC50; for CDK2 Fold selectivity, CDK6 / CDK2 Fold Sensitivity, CDK6: CDK2 versus CDK6; for CDK2 Fold Sensitivity, CDK6: Table 8; for CDK2 Fold selectivity against CDK6: Table 38, fold selectivity for CDK2 over CDK6, recombinant CDK kinases
Procedure: as §1, §2, §3, §4

[5] = biological target: CDK9-CYCLIN T1 (Homo sapiens, UniProt P50750); assay: CDK protein kinase inhibition by ADP-Glo assay, CDK9-CYCLIN T1; assay type: biochemical; details: for IC50: read-out: CDK9-CYCLINT1, IC50; for CDK2 Fold selectivity, CDK9 / CDK2 Fold Sensitivity, CDK9: CDK2 versus CDK9; for CDK2 Fold Sensitivity, CDK9: Table 8; for CDK2 Fold selectivity against CDK9: Table 38, fold selectivity for CDK2 over CDK9, recombinant CDK kinases
Procedure: as §1, §2, §3, §4

[6] = tested on: Phospho-Rb (Ser807/811) in OVCAR3 cells; assay: Phospho-Rb expression inhibition in OVCAR3 cells quantified by In Cell Western; assay type: cell-based; details: Homo sapiens, OVCAR-3, 24 hours, read-out: OVCAR-3 pRb IC50
Method in brief: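 In-cell western: after 24 h compound exposure at 37° C, fixed OVCAR3 cells co-stained for pRb Ser807/811 (800 nm channel) and total Rb (680 nm channel), imaged by LI-COR Odyssey.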

[7] = tested on: CCNE1-amplified OVCAR3 cells; assay: Cell growth inhibition of CCNE1-amplified OVCAR3 cells (CellTiter-Glo); assay type: cell-based; details: Homo sapiens, OVCAR-3, 144 h, 6 days
Method in brief: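 Growth read-out was CellTiter-Glo luminescence, taken after 10 min at room temperature at the end of a 6-day compound exposure at 37 °C. Compounds were diluted from DMSO stocks across various concentrations.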

[8] = tested on: CCNE1-normal SKOV3 cells; assay: Cell growth inhibition of CCNE1-normal SKOV3 cells (CellTiter-Glo); assay type: cell-based; details: Homo sapiens, SK-OV-3, 144 h, 6 days
Method in brief: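 Growth was measured by CellTiter-Glo luminescence after 6 days' compound exposure at 37 °C. Cells were plated one day before dosing at 1000 per well in medium with 10% FBS, and compounds were diluted from DMSO stocks.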

[9] = Table 37, recombinant CDK kinase

Chain of CDK6-CYCLIN D3 (Q00534 whole entry): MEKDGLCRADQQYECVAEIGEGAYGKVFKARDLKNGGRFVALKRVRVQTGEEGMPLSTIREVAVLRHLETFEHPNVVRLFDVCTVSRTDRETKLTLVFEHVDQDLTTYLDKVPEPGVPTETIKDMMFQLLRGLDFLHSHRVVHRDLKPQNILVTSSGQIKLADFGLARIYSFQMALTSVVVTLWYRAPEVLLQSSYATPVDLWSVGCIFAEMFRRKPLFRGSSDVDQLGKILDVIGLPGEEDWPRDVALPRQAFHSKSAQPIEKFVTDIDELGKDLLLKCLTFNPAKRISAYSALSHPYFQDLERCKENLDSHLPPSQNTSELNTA
Chain of CDK6-CYCLIN D3 (P30281 whole entry partner): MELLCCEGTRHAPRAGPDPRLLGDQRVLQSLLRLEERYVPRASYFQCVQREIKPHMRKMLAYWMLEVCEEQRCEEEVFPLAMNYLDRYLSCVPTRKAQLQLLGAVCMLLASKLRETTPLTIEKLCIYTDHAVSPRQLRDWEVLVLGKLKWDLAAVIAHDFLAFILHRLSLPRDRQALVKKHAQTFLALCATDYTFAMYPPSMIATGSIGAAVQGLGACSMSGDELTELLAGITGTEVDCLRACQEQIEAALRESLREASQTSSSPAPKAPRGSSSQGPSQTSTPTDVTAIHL
Chain of CDK9-CYCLIN T1 (P50750 whole entry): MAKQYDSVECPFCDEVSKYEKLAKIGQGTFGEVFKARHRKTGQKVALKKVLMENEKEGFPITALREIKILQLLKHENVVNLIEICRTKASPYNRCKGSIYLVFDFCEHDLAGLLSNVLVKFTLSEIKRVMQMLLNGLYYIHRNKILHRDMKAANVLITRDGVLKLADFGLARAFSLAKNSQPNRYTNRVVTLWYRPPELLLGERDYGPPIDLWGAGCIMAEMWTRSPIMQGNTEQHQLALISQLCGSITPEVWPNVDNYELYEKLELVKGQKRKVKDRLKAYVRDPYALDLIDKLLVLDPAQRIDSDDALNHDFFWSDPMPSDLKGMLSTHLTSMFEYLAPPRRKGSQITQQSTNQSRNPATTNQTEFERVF
Chain of CDK9-CYCLIN T1 (O60563 whole entry partner): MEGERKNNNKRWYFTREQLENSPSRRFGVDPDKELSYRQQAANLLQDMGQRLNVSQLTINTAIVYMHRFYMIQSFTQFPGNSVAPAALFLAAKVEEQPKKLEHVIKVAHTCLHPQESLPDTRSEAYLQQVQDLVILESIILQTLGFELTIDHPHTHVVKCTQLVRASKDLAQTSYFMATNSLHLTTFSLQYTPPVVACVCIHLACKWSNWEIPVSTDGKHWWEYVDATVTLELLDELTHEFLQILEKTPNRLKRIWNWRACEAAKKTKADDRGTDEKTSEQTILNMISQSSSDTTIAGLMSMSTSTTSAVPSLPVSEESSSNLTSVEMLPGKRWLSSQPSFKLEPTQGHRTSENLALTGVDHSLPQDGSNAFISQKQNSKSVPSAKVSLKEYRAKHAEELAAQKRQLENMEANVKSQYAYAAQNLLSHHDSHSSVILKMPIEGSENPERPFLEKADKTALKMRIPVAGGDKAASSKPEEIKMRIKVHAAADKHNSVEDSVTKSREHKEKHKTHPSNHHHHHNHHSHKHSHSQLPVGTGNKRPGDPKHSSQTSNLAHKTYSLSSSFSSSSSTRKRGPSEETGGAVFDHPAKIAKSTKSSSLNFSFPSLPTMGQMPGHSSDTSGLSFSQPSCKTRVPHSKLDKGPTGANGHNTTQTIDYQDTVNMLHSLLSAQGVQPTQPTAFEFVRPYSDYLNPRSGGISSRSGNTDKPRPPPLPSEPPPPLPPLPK
Chain of CDK1-CYCLIN B (P06493 whole entry): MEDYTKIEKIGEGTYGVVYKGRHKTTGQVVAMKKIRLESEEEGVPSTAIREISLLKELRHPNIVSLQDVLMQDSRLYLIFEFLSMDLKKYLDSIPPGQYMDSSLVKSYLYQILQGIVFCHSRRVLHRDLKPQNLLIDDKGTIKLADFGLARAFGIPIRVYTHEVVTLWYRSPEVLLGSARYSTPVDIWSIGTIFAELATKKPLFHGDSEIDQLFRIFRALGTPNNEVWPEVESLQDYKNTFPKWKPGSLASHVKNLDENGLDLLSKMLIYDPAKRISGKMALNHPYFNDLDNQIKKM
Chain of CDK1-CYCLIN B (P14635 whole entry partner): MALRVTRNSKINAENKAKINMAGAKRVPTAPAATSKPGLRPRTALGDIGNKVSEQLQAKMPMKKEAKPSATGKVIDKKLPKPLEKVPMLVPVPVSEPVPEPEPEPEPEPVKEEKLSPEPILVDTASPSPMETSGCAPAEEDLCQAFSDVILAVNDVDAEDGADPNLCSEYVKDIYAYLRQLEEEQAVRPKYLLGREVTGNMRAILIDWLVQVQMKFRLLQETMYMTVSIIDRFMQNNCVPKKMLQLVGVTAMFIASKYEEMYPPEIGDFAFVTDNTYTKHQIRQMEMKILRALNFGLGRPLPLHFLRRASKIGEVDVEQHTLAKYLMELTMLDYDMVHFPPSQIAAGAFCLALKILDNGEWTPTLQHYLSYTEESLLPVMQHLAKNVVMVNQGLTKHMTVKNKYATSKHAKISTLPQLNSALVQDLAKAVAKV
Chain of CDK4-CYCLIN D1 (P11802 whole entry): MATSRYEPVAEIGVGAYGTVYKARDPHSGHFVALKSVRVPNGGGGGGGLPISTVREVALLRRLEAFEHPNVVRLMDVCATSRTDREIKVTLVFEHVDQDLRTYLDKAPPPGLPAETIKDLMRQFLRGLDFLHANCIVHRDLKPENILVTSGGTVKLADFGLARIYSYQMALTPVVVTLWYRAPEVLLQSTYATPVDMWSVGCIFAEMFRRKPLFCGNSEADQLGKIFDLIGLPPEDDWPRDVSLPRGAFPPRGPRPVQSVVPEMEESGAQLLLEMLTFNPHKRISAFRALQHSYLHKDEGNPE
Chain of CDK4-CYCLIN D1 (P24385 whole entry partner): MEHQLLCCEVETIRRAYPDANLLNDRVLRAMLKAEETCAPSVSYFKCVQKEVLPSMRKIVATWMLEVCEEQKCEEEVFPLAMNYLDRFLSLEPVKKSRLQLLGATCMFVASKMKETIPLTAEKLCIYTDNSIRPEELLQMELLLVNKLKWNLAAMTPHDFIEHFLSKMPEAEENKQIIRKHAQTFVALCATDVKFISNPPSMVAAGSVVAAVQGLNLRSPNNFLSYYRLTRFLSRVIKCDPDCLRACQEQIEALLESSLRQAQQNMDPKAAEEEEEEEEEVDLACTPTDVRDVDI

| IC50 [6] [nM] | IC50 [7] [nM] | IC50 ([1]; ADP-Glo, 1000 μM ATP, Table 7) [nM] | CDK2 fold selectivity over CDK1 [1] | IC50 ([2]; ADP-Glo, 1000 μM ATP, Table 7) [nM] | IC50 ([3]; ADP-Glo, 1000 μM ATP, Table 7) [nM] | CDK2 Fold Sensitivity, CDK4 [3] | IC50 ([4]; ADP-Glo, 1000 μM ATP, Table 7) [nM] | CDK2 Fold Sensitivity, CDK6 [4] | IC50 ([5]; ADP-Glo, 1000 μM ATP, Table 7) [nM] | CDK2 Fold Sensitivity, CDK9 [5] | IC50 [1, 9] [nM] | CDK2 Fold selectivity against CDK1 [1] | IC50 [2, 9] [nM] | IC50 [3, 9] [nM] | CDK2 Fold selectivity against CDK4 [3] | IC50 [4, 9] [nM] | CDK2 Fold selectivity against CDK6 [4] | IC50 [5, 9] [nM] | Structure (SMILES) | IC50 [8] [nM] | further results |
| --- | --- | --- | --- | --- | --- | --- | --- | --- | --- | --- | --- | --- | --- | --- | --- | --- | --- | --- | --- | --- | --- |
| 2 to 10 | 2 to 10 | – | – | – | – | – | – | – | – | – | – | – | – | – | – | – | – | – | O=C1N[C@H]2C[C@@H](CC(F)(F)c3cc(ccn3)Nc3cc(n[nH]3)[C@H]3CC[C@H](C3)O1)C2 (single isomer, unassigned) [Compound 170, (1^1S,1^3R,7^1S,7^3R,Z)-5,5-difluoro-2^1H-10-oxa-3,8-diaza-4(4,2)-pyridina-2(3,5)-pyrazola-1(1,3)-cyclopentana-7(1,3)-cyclobutanacyclodecaphan-9-one] | 50 to 250 | IC50 ([1]; ADP-Glo, 1000 μM ATP, Table 31): ≤ 10 nM; CDK2 Fold selectivity, CDK1 ([1]; Table 32): E (E, <20); IC50 ([2]; ADP-Glo, 1000 μM ATP, Table 31): ≤ 10 nM; IC50 ([3]; ADP-Glo, 1000 μM ATP, Table 31): 10 to 50 nM; CDK2 Fold selectivity, CDK4 ([3]; Table 32): E (E, <20); IC50 ([4]; ADP-Glo, 1000 μM ATP, Table 31): 10 to 50 nM; CDK2 Fold selectivity, CDK6 ([4]; Table 32): E (E, <20); IC50 ([5]; ADP-Glo, 1000 μM ATP, Table 31): 10 to 50 nM; CDK2 Fold selectivity, CDK9 ([5]; Table 32): E (E, <20) |
| 10 to 50 | 50 to 250 | 100 to 500 | D (D, >20 and ≤50) | ≤ 10 | 50 to 100 | E (E, <20) | 50 to 100 | E (E, <20) | 100 to 500 | D (D, >20 and ≤50) | – | – | – | – | – | – | – | – | O=C1NCCCCCc2cc(ccn2)Nc2cc([nH]n2)[C@H]2CC[C@H](C2)O1 [Compound 4, (1^1S,1^3R,Z)-2^1H-12-oxa-3,10-diaza-4(4,2)-pyridina-2(3,5)-pyrazola-1(1,3)-cyclopentanacyclododecaphan-11-one] | 250 to 1250 | – |
| 10 to 50 | 10 to 50 | 100 to 500 | C (C, >50 and ≤100) | ≤ 10 | > 500 | B (B, >100 and ≤500) | > 500 | B (B, >100 and ≤500) | > 500 | B (B, >100 and ≤500) | – | – | – | – | – | – | – | – | C[C@H]1CCCOc2cc(ccn2)Nc2cc([nH]n2)[C@H]2CC[C@H](C2)OC(=O)N1 [Compound 9, (1^1S,1^3R,9S,Z)-9-methyl-2^1H-5,12-dioxa-3,10-diaza-4(4,2)-pyridina-2(3,5)-pyrazola-1(1,3)-cyclopentanacyclododecaphan-11-one] | > 1250 | IC50 ([1]; ADP-Glo, 1000 μM ATP, Table 29): 100 to 500 nM; CDK2 Fold selectivity, CDK1 ([1]; Table 30): E (E, <20); IC50 ([2]; ADP-Glo, 1000 μM ATP, Table 29): 10 to 50 nM; IC50 ([3]; ADP-Glo, 1000 μM ATP, Table 29): > 500 nM; CDK2 Fold selectivity, CDK4 ([3]; Table 30): C (C, >50 and ≤100); IC50 ([4]; ADP-Glo, 1000 μM ATP, Table 29): > 500 nM; CDK2 Fold selectivity, CDK6 ([4]; Table 30): C (C, >50 and ≤100); IC50 ([5]; ADP-Glo, 1000 μM ATP, Table 29): > 500 nM; CDK2 Fold selectivity, CDK9 ([5]; Table 30): C (C, >50 and ≤100) |
| 10 to 50 | 50 to 250 | 100 to 500 | D (D, >20 and ≤50) | ≤ 10 | 100 to 500 | C (C, >50 and ≤100) | 100 to 500 | C (C, >50 and ≤100) | > 500 | B (B, >100 and ≤500) | – | – | – | – | – | – | – | – | C[C@@H]1CCCOc2cc(ccn2)Nc2cc([nH]n2)[C@H]2CC[C@H](C2)OC(=O)N1 [Compound 10, (1^1S,1^3R,9R,Z)-9-methyl-2^1H-5,12-dioxa-3,10-diaza-4(4,2)-pyridina-2(3,5)-pyrazola-1(1,3)-cyclopentanacyclododecaphan-11-one] | > 1250 | – |
| 2 to 10 | 2 to 10 | 10 to 50 | E (E, <20) | ≤ 10 | 50 to 100 | C (C, >50 and ≤100) | 50 to 100 | D (D, >20 and ≤50) | 50 to 100 | C (C, >50 and ≤100) | – | – | – | – | – | – | – | – | CC1(C)CCCOc2cc(ccn2)Nc2cc([nH]n2)[C@H]2CC[C@H](C2)OC(=O)N1 [Compound 13, (1^1S,1^3R,Z)-9,9-dimethyl-2^1H-5,12-dioxa-3,10-diaza-4(4,2)-pyridina-2(3,5)-pyrazola-1(1,3)-cyclopentanacyclododecaphan-11-one] | 250 to 1250 | – |
| 10 to 50 | 10 to 50 | – | – | – | – | – | – | – | – | – | 10 to 50 | E (E, <20) | ≤ 10 | 10 to 50 | E (E, <20) | 10 to 50 | E (E, <20) | 10 to 50 | O=C1NC2CC(COc3cc(ccn3)Nc3cc(n[nH]3)C3C[C@H](F)[C@@H](C3)O1)C2 [Compound 230, (1^1S,1^3R,1^4S,7^1R,7^3S,Z)-1^4-fluoro-2^1H-5,10-dioxa-3,8-diaza-4(4,2)-pyridina-2(3,5)-pyrazola-1(1,3)-cyclopentana-7(1,3)-cyclobutanacyclodecaphan-9-one] | – | CDK2 Fold selectivity against CDK9 [5]: E (E, <20) |
| 10 to 50 | 10 to 50 | – | – | – | – | – | – | – | – | – | 50 to 100 | E (E, <20) | ≤ 10 | 100 to 500 | B (B, >100 and ≤500) | 100 to 500 | B (B, >100 and ≤500) | > 500 | O=C1NC2CC(COc3cc(ccn3)Nc3[nH]nc(c3F)C3C[C@@H](F)[C@H](C3)O1)C2 [Compound 231, (1^1R,1^3S,1^4R,7^1S,7^3R,E)-1^4,2^4-difluoro-2^1H-5,10-dioxa-3,8-diaza-4(4,2)-pyridina-2(3,5)-pyrazola-1(1,3)-cyclopentana-7(1,3)-cyclobutanacyclodecaphan-9-one] | – | CDK2 Fold selectivity against CDK9 [5]: B (B, >100 and ≤500) |
| 10 to 50 | 50 to 250 | – | – | – | – | – | – | – | – | – | 100 to 500 | E (E, <20) | 10 to 50 | 50 to 100 | E (E, <20) | 100 to 500 | E (E, <20) | 100 to 500 | O=C1NC2CC(COc3cc(ccn3)Nc3[nH]nc(c3F)C3C[C@H](F)[C@@H](C3)O1)C2 [Compound 232, (1^1S,1^3R,1^4S,7^1R,7^3S,E)-1^4,2^4-difluoro-2^1H-5,10-dioxa-3,8-diaza-4(4,2)-pyridina-2(3,5)-pyrazola-1(1,3)-cyclopentana-7(1,3)-cyclobutanacyclodecaphan-9-one] | – | CDK2 Fold selectivity against CDK9 [5]: E (E, <20) |
